Values quoted from earlier work, collected in article PMC6379498, “Radiosynthesis and in vivo evaluation of ^11C-labeled BMS-193885 and its desmethyl analog as PET tracers for neuropeptide Y1 receptors” (EJNMMI Radiopharmacy and Chemistry, 2019).
Like-named read-outs stand apart in the source and are kept apart here.

Assays:
[1] = molecular target: NPY Y1-R; parameters: method as in Poindexter et al. [2002]; conditions: ref Poindexter et al. [2002]; cited from earlier work
[2] = parameters: method as in Antal-Zimanyi et al. [2008]; conditions: rats, ref Antal-Zimanyi et al. [2008]; cited from earlier work
[3] = parameters: method as in Poindexter et al. [2002]; conditions: in vitro, unlabeled 1, ref Poindexter et al. [2002]; cited from earlier work
[4] = tested on: animal models of obesity; parameters: method as in Antal-Zimanyi et al. [2008]; conditions: acute and chronic administration, ref Antal-Zimanyi et al. [2008]; cited from earlier work
[5] = parameters: method as in Antal-Zimanyi et al. [2008]; conditions: ref Antal-Zimanyi et al. [2008]; cited from earlier work
[6] = parameters: method as in Antal-Zimanyi et al. [2008]; conditions: dogs, ref Antal-Zimanyi et al. [2008]; cited from earlier work

| Compound | Ki [1] [nM] | Adverse cardiovascular effects [2] | Stability in rat liver microsomes [3] | Body weight [4] | Food intake [4] | Brain penetration [5] | Oral bioavailability [5] | Systemic bioavailability [5] | Adverse cardiovascular effects [6] |
| --- | --- | --- | --- | --- | --- | --- | --- | --- | --- |
| COC(=O)C1=C(C)NC(C)=C(C(=O)OC)C1c1cccc(NC(=O)NCCCN2CCC(c3cccc(O)c3)CC2)c1 [Compound 2, Dimethyl 4-(3-(3-(3-(4-(3-hydroxyphenyl)piperidin-1-yl)propyl)ureido)phenyl)-2,6-dimethyl-1,4-dihydropyridine-3,5-dicarboxylate] | 2.7 |  |  |  |  |  |  |  |  |
| COC(=O)C1=C(C)NC(C)=C(C(=O)OC)C1c1cccc(NC(=O)NCCCN2CCC(c3cccc(OC)c3)CC2)c1 [Compound 1] | 3.3 | no serious adverse cardiovascular effects | good stability | reduced | reduced | good | lacks oral bioavailability | good | no serious adverse cardiovascular effects |
